{
  "source": "ChEMBL document CHEMBL4177683",
  "about": "“New terpenoids and thiophene derivatives from the aerial parts of Artemisia sieversiana” (Bioorg Med Chem Lett, 2017)",
  "data": [
    {"tested_on": "BV-2", "experiment": "Antiinflammatory activity in mouse BV2 cells assessed as inhibition of LPS-stimulated nitric oxide production by Griess reagent based spectrophotometric analysis", "assay_type": "functional, cell-based", "units": {"IC50": "µM"}, "values": [
      {"smiles": "CC(=O)O[C@H]1CC(C)=C2C(=O)C=C(C)[C@@H]2[C@H]2OC(=O)[C@@H](C)[C@@H]21", "IC50": "> 100"},
      {"smiles": "CC#Cc1cc(O)c(C(C)=O)s1", "IC50": 98.5},
      {"smiles": "C/C1=C\\C[C@H](O)/C(C)=C/[C@H]2OC(=O)[C@H](C)[C@@H]2CC1", "IC50": 27.9},
      {"smiles": "CC1=CC[C@@H]([C@](C)(O)[C@H]2CC[C@@]3(C)[C@@H]4C[C@@H](O)[C@H]5C(C)(C)OC(=O)C=C[C@@]56C[C@@]46CC[C@]23C)OC1=O", "IC50": "> 100"},
      {"smiles": "CC(=O)O[C@H]([C@@H]1C=C(C)C(=O)O1)[C@@H](C)C1[C@@H]2[C@@]3(O)O[C@@]4(CC[C@]12C)C(O)[C@]12OC(=O)C[C@H]1OC(C)(C)[C@@H]2CC[C@H]4C3=O", "note": "(stereo partly drawn)", "IC50": 11.9},
      {"smiles": "C/C=C(/C)C(=O)O[C@@H]1C[C@H]2C(C)(C)O[C@@H]3CC(=O)O[C@@]32C[C@@]2(O)C[C@H](O)[C@]34O[C@@]5(C=C(C)C(=O)O5)C[C@@H](C)[C@H]3C[C@@H]3O[C@@]34[C@H]12", "IC50": "> 100"},
      {"smiles": "CC(=O)O[C@H]1C[C@]2(C)O[C@@]23C(=O)C=C(C)C3[C@H]2OC(=O)[C@H](C)[C@H]12", "note": "(stereo partly drawn)", "IC50": 6.5},
      {"smiles": "C=C1CC[C@@H](C(C)C)/C=C/C(=O)CC[C@H]1O", "IC50": "> 100"},
      {"smiles": "CC1=C(CC[C@@H](C)O)C(C)(C)C[C@H](O)C1", "IC50": "> 100"},
      {"smiles": "CC(=O)O[C@H]([C@@H]1CC(C)C(=O)O1)[C@@H](C)C1[C@@H]2[C@@]3(O)O[C@@]4(CC[C@]12C)C(O)[C@]12OC(=O)C[C@H]1OC(C)(C)[C@@H]2CC[C@H]4C3=O", "note": "(stereo partly drawn)", "IC50": 10.1},
      {"smiles": "CC#Cc1ccc(C(=O)O)s1", "IC50": 79.5},
      {"smiles": "CC1=CC(=O)[C@]23O[C@@]2(C)C[C@H](O)[C@@H]2[C@H](OC(=O)[C@@H]2C)[C@@H]13", "IC50": "> 100"},
      {"smiles": "O=c1c(O)c(-c2ccc(O)c(O)c2)oc2cc(O)cc(O)c12", "note": "[QUERCETIN]", "IC50": 16.3}
    ]}
  ]
}
